# Test results as given in patent publication US9573947B2, “Salt of pyrazoloquinoline derivative, and crystal thereof” (Eisai R&D Management Co., Ltd., priority 2013, dated 2017).
# Key:
# [1] = Dissolution test in fasted state simulated intestinal fluid; assay type: physicochemical; conditions: for CONCENTRATION (dissolution): fasted state simulated intestinal fluid pH 6.5, 37° C., 50 rpm, in terms of compound (I); for concentration achieved relative to the concentration of compound (I): dissolution test, fasted state simulated intestinal fluid
# Protocol: Each of compound (I) (50 mg), the compound of Example 1 (30 mg) and the compound of Example 2 (30 mg) was filled into a hydroxypropyl methylcellulose capsule, together with an equal weight of lactose hydrate. A 708-DS from Agilent Technologies was equipped with small stirring paddles and small vessels, and used as a dissolution test apparatus. Each drug-filled capsule was added to 50 ml of fasted state simulated intestinal fluid (a phosphate buffer pH 6.5 containing 0.75 mM lecithin and 3 mM sodium taurocholate) which had been warmed to 37° C. The drug was dissolved by rotating the stirring paddle at a speed of 50 rpm. The dissolved solution was sampled over time and the drug concentrations were measured by HPLC. Such dissolution tests using fasted state simulated intestinal fluid are often used to evaluate the dissolution and absorption characteristics of drugs (e.g., Takano et al., “Oral absorption of poorly water-soluble drugs: computer simulation of fraction absorbed in humans from a miniscale dissolution test”, Pharm Res., vol. 23, pp. 1144-1156, 2006). The results were shown in Table 1 and the graph in FIG. 12.
# [2] = Test on oral absorption characteristics in dogs; assay type: in vivo, beagle dogs; conditions: for AREA UNDER PLASMA CONCENTRATION-TIME CURVE, MEAN: mean of 4 beagle dogs; for PLASMA CONCENTRATION MEAN: mean of dogs
smiles,measurement,setting,value
"COc1ncc(C)c(-c2ccc3c(c2)[nH]c(=O)c2cnn([C@H]4CCOC4)c23)c1C.O=S(=O)(O)c1ccccc1 [Example 2, (S)-7-(2-methoxy-3,5-dimethylpyridin-4-yl)-1-(tetrahydrofuran-3-yl)-1H-pyrazolo[4,3-c]quinolin-4(5H)-one Monobenzenesulfonate Salt]",CONCENTRATION (dissolution),[1]; 6 minutes,0.0 µg/mL
same,CONCENTRATION (dissolution),[1]; 10 minutes,0.5 µg/mL
same,CONCENTRATION (dissolution),[1]; 15 minutes,7.3 µg/mL
same,CONCENTRATION (dissolution),[1]; 20 minutes,9.3 µg/mL
same,CONCENTRATION (dissolution),[1]; 30 minutes,10.2 µg/mL
same,CONCENTRATION (dissolution),[1]; 60 minutes,10.7 µg/mL
same,CONCENTRATION (dissolution),[1]; 90 minutes,10.6 µg/mL
same,CONCENTRATION (dissolution),[1]; 120 minutes,10.7 µg/mL
same,CONCENTRATION (dissolution),[1]; 180 minutes,9.4 µg/mL
same,CONCENTRATION (dissolution),[1]; 240 minutes,9.0 µg/mL
same,concentration achieved relative to the concentration of compound (I),[1],about 2 fold
"COc1ncc(C)c(-c2ccc3c(c2)[nH]c(=O)c2cnn([C@H]4CCOC4)c23)c1C.O=C(O)/C=C\C(=O)O [Example 1, (S)-7-(2-methoxy-3,5-dimethylpyridin-4-yl)-1-(tetrahydrofuran-3-yl)-1H-pyrazolo[4,3-c]quinolin-4(5H)-one Monomaleate Salt]",CONCENTRATION (dissolution),[1]; 6 minutes,6.4 µg/mL
same,CONCENTRATION (dissolution),[1]; 10 minutes,11.8 µg/mL
same,CONCENTRATION (dissolution),[1]; 15 minutes,20.8 µg/mL
same,CONCENTRATION (dissolution),[1]; 20 minutes,23.3 µg/mL
same,CONCENTRATION (dissolution),[1]; 30 minutes,27.9 µg/mL
same,CONCENTRATION (dissolution),[1]; 60 minutes,25.0 µg/mL
same,CONCENTRATION (dissolution),[1]; 90 minutes,23.9 µg/mL
same,CONCENTRATION (dissolution),[1]; 120 minutes,22.1 µg/mL
same,CONCENTRATION (dissolution),[1]; 180 minutes,18.8 µg/mL
same,CONCENTRATION (dissolution),[1]; 240 minutes,18.8 µg/mL
same,concentration achieved relative to the concentration of compound (I),[1],4- to 5 fold
same,PLASMA CONCENTRATION,"[2]; Dog 1, 0.25 hours, oral capsule, 100 mg in terms of the free form",BQL
same,PLASMA CONCENTRATION,"[2]; Dog 1, 0.5 hours, oral capsule, 100 mg in terms of the free form",0.428 µg/mL
same,PLASMA CONCENTRATION,"[2]; Dog 1, 1 hour, oral capsule, 100 mg in terms of the free form",0.506 µg/mL
same,PLASMA CONCENTRATION,"[2]; Dog 1, 2 hours, oral capsule, 100 mg in terms of the free form",0.343 µg/mL
same,PLASMA CONCENTRATION,"[2]; Dog 1, 4 hours, oral capsule, 100 mg in terms of the free form",0.219 µg/mL
same,PLASMA CONCENTRATION,"[2]; Dog 1, 6 hours, oral capsule, 100 mg in terms of the free form",0.158 µg/mL
same,PLASMA CONCENTRATION,"[2]; Dog 1, 8 hours, oral capsule, 100 mg in terms of the free form",0.134 µg/mL
same,PLASMA CONCENTRATION,"[2]; Dog 1, 24 hours, oral capsule, 100 mg in terms of the free form",0.102 µg/mL
same,AREA UNDER PLASMA CONCENTRATION-TIME CURVE,"[2]; Dog 1, oral capsule, 100 mg in terms of the free form",3.83 µg·h/mL
same,PLASMA CONCENTRATION,"[2]; Dog 2, 0.25 hours, oral capsule, 100 mg in terms of the free form",BQL
same,PLASMA CONCENTRATION,"[2]; Dog 2, 0.5 hours, oral capsule, 100 mg in terms of the free form",0.140 µg/mL
same,PLASMA CONCENTRATION,"[2]; Dog 2, 1 hour, oral capsule, 100 mg in terms of the free form",0.457 µg/mL
same,PLASMA CONCENTRATION,"[2]; Dog 2, 2 hours, oral capsule, 100 mg in terms of the free form",0.469 µg/mL
same,PLASMA CONCENTRATION,"[2]; Dog 2, 4 hours, oral capsule, 100 mg in terms of the free form",0.313 µg/mL
same,PLASMA CONCENTRATION,"[2]; Dog 2, 6 hours, oral capsule, 100 mg in terms of the free form",0.224 µg/mL
same,PLASMA CONCENTRATION,"[2]; Dog 2, 8 hours, oral capsule, 100 mg in terms of the free form",0.199 µg/mL
same,PLASMA CONCENTRATION,"[2]; Dog 2, 24 hours, oral capsule, 100 mg in terms of the free form",0.023 µg/mL
same,AREA UNDER PLASMA CONCENTRATION-TIME CURVE,"[2]; Dog 2, oral capsule, 100 mg in terms of the free form",4.16 µg·h/mL
same,PLASMA CONCENTRATION,"[2]; Dog 3, 0.5 hours, oral capsule, 100 mg in terms of the free form",0.377 µg/mL
same,PLASMA CONCENTRATION,"[2]; Dog 3, 1 hour, oral capsule, 100 mg in terms of the free form",0.422 µg/mL
same,PLASMA CONCENTRATION,"[2]; Dog 3, 2 hours, oral capsule, 100 mg in terms of the free form",0.337 µg/mL
same,PLASMA CONCENTRATION,"[2]; Dog 3, 4 hours, oral capsule, 100 mg in terms of the free form",0.272 µg/mL
same,PLASMA CONCENTRATION,"[2]; Dog 3, 6 hours, oral capsule, 100 mg in terms of the free form",0.217 µg/mL
same,PLASMA CONCENTRATION,"[2]; Dog 3, 8 hours, oral capsule, 100 mg in terms of the free form",0.147 µg/mL
same,PLASMA CONCENTRATION,"[2]; Dog 3, 24 hours, oral capsule, 100 mg in terms of the free form",0.020 µg/mL
same,AREA UNDER PLASMA CONCENTRATION-TIME CURVE,"[2]; Dog 3, oral capsule, 100 mg in terms of the free form",3.49 µg·h/mL
same,PLASMA CONCENTRATION,"[2]; Dog 4, 0.25 hours, oral capsule, 100 mg in terms of the free form",BQL
same,PLASMA CONCENTRATION,"[2]; Dog 4, 1 hour, oral capsule, 100 mg in terms of the free form",0.422 µg/mL
same,PLASMA CONCENTRATION,"[2]; Dog 4, 2 hours, oral capsule, 100 mg in terms of the free form",0.401 µg/mL
same,PLASMA CONCENTRATION,"[2]; Dog 4, 4 hours, oral capsule, 100 mg in terms of the free form",0.322 µg/mL
same,PLASMA CONCENTRATION,"[2]; Dog 4, 6 hours, oral capsule, 100 mg in terms of the free form",0.248 µg/mL
same,PLASMA CONCENTRATION,"[2]; Dog 4, 8 hours, oral capsule, 100 mg in terms of the free form",0.210 µg/mL
same,PLASMA CONCENTRATION,"[2]; Dog 4, 24 hours, oral capsule, 100 mg in terms of the free form",0.074 µg/mL
same,AREA UNDER PLASMA CONCENTRATION-TIME CURVE,"[2]; Dog 4, oral capsule, 100 mg in terms of the free form",4.54 µg·h/mL
same,concentration at 0.25 h,"[2]; beagle, dog, plasma, po, 100 mg, Dog 3, 0.25 hours, oral capsule, 100 mg in terms of the free form",279 ng/mL
same,concentration at 0.5 h,"[2]; beagle, dog, plasma, po, 100 mg, Dog 4, 0.5 hours, oral capsule, 100 mg in terms of the free form",6 ng/mL
same,"AREA UNDER PLASMA CONCENTRATION-TIME CURVE, MEAN","[2]; oral capsule, 100 mg in terms of the free form, Monomaleate Salt",4.00 ± 0.45 µg·h/mL
same,"AREA UNDER PLASMA CONCENTRATION-TIME CURVE, MEAN","[2]; oral capsule, 100 mg in terms of the free form, listed as EXAMPLE 1, Monomaleate Salt",4.00 µg·h/mL
same,PLASMA CONCENTRATION MEAN,"[2]; 0.5 hours, oral capsule, 100 mg in terms of the free form",0.315 µg/mL
same,PLASMA CONCENTRATION MEAN,"[2]; 1 hour, oral capsule, 100 mg in terms of the free form",0.452 µg/mL
same,PLASMA CONCENTRATION MEAN,"[2]; 2 hours, oral capsule, 100 mg in terms of the free form",0.388 µg/mL
same,PLASMA CONCENTRATION MEAN,"[2]; 4 hours, oral capsule, 100 mg in terms of the free form",0.282 µg/mL
same,PLASMA CONCENTRATION MEAN,"[2]; 6 hours, oral capsule, 100 mg in terms of the free form",0.212 µg/mL
same,PLASMA CONCENTRATION MEAN,"[2]; 8 hours, oral capsule, 100 mg in terms of the free form",0.172 µg/mL
same,PLASMA CONCENTRATION MEAN,"[2]; 24 hours, oral capsule, 100 mg in terms of the free form",0.055 µg/mL
same,absorption rate compared with compound (I),"[2]; oral capsule to beagle dogs, crossover",higher
